Values quoted from earlier work as cited in patent US20130048853A1, “Adsorbent and Method for Producing Same” (HITACHI HIGH-TECHNOLOGIES CORPORATION, priority 2010, published 2013).
Where “and” joins values, the source holds several entries; their conditions need not be identical. Identical values can stand only once. Like-named read-outs stand apart in the source and are kept apart here.

[1] = source not stated, calculated or actual values may be applied

logP (octanol-water distribution coefficient) [1] | logP (octanol-water distribution coefficient) | Compound
3.5 |  | CO[C@H]1C[C@@H]2CC[C@@H](C)[C@@](O)(O2)C(=O)C(=O)N2CCCC[C@H]2C(=O)O[C@H]([C@H](C)C[C@@H]2CC[C@@H](O)[C@H](OC)C2)CC(=O)[C@H](C)/C=C(\C)[C@@H](O)[C@@H](OC)C(=O)[C@H](C)C[C@H](C)/C=C/C=C/C=C/1C [rapamycin]
 | 2.5 | O=C1NC(=O)C(c2ccccc2)(c2ccccc2)N1 [phenyloin]
3.4 and 3.35 |  | CO[C@H]1C[C@@H]2CC[C@@H](C)[C@@](O)(O2)C(=O)C(=O)N2CCCC[C@H]2C(=O)O[C@H]([C@H](C)C[C@@H]2CC[C@@H](OCCO)[C@H](OC)C2)CC(=O)[C@H](C)/C=C(\C)[C@@H](O)[C@@H](OC)C(=O)[C@H](C)C[C@H](C)/C=C/C=C/C=C/1C [everolimus]
